The test system of assay [1] is nontransformed lung fibroblast (MRC-5). Particulars: 48 h.
Excerpt: (§1) IC50 is the concentration at which 50% growth inhibition is obtained and E max represents the efficacy of the compound at its maximum concentration, expressed as the maximum % cell inhibition achieved by the compound (see Section S6 and Figure S8 of the Supporting Information).
(§2) General method: cell lines and grown conditions
(§3) Non-small lung carcinoma NCI-H460, human colon carcinoma HCT-116, human glioma SF-268
(§4) and doxorubicin-resistance human mamma carcinoma NCI/ADR-RES cell lines, as well as
(§5) Eagle’s Minimal Essential Medium (EMEM) and RPMI1640 were purchased from the American Tissue Culture Collection (ATCC). Frozen cells were thawed in a 75 cm2 cell culture flask in RPMI
(§6) supplemented with 2 mM L-glutamine and 10% FBS and maintained at 37 °C in a 5% CO2
(§7) The inhibition of cell proliferation induced by the samples [1/Cu(II), 1 eq. cyclopeptide 1/3 eq. of
(§8) Cu(II); 2/Cu(II), 1 eq. cyclopeptide 2/5 eq. of Cu(II)]‚ was carried out by using MTT method for
(§9) HCT-116, NCI/ADR-RES and NCI-H460 cell lines. SF-268 cell growth inhibition induced by the
(§10) samples was assessed using a system based on crystal violet cell staining and subsequent
(§11) acetylation. Cells were seeded in a 96-well microplate (5000 cells/well for HCT-116, 10000
(§12) cells/well for SF-268 and 15000 cells/well for NCI/ADR-RES and NCI-H460 cell lines) in 100 μl
(§13) of growth medium and maintained at 37 °C for 24 h.
(§14) Then growth medium was replaced by fresh medium containing different concentrations of the
(§15) samples to be assayed and maintained at 37 °C in a 5% CO2 atmosphere for 48 h. After this
(§16) time, 10 μL MTT (5 mg/ml in PBS) were added to each well and maintained for 4 h at 37 °C in a
(§17) 5% CO2 atmosphere. Then 100 μL of 10% SDS in 0.01 M HCl were added to each well an
(§18) incubated for 12-14 h under the same experimental conditions. Absorbance due to formation
(§19) was detected in a Tecan infinity M1000 Pro reader using a wavelength of 595 nm. All assays
were performed with triplicate points.
b) Crystal violet cell staining
(§20) The samples dissolved in water were added, maintaining the same proportion of water in each
(§21) well (10%). After 72 h (at 37°C and in an atmosphere of 5% CO 2/95% air), the cells were fixed to
(§22) the plate with 10 μL of 11% glutaraldehyde solution, kept under agitation at room temperature,
(§23) for 15 minutes. Once fixed, the medium was removed and the cells were washed 3-4 times with
(§24) distilled water, followed by staining of the cells with 100 μL of a 0.1% crystal violet solution. This
(§25) solution was prepared by diluting 0.1g of crystal violet in 100 mL of buffer composed of 200 mM
(§26) phosphoric acid, 200 mM formic acid and 200 mM 2-(N-morpholino)-ethane sulphonic acid
(§27) (MES) at pH 6. The plate was kept shaking at room temperature for 15 minutes. The dye was
(§28) removed, washed 3-4 times with distilled water and dried. 100 μL of 10% acetic acid was then
(§29) added and kept under agitation for 15 minutes, at room temperature, so that the staining was
(§30) homogeneous in all wells. Finally, an absorbance reading of the plates was performed at a
(§31) wavelength of 595 nm (Tecan M1000 Infinite Pro). The assay was performed with triplicate points.
(§32) Data were expressed as the growth inhibition percentage calculated in basis on the equation: %
(§33) inhibition= 100 – [(AO × 100) / AT]. Where AT is the measured absorbance in wells containing
(§34) compounds and AO is the absorbance measured in blank wells (cells with medium and vehicle).
(§35) The inhibitory potency of compounds was calculated by constructing concentration-% growth
(§36) inhibition curves, and extrapolating IC50 values (concentration of compound that inhibits cells
In assay [2] the test system is NCI-H460 (lung carcinoma). Particulars: 48 h.
Excerpt: as §1, §2, §3, §4, §5, §6, §7, §8, §9, §10, §11, §12, §13, §14, §15, §16, §17, §18, §19
were performed with triplicate points.
b) Crystal violet cell staining
as §20, §21, §22, §23, §24, §25, §26, §27, §28, §29, §30, §31, §32, §33, §34, §35, §36
A short description of assay [3]: Fluorescence titration of cyclopeptides with Cu(II) ions (DynaFit fit). Type of assay: binding. Particulars: 2 μM cyclopeptide, 1 mM phosphate buffer, 10 mM NaCl, pH 6.5; 1: 1:2 model (cyclopeptide:metal); 2: simplified model with 1:1 and 2:1 species; read-out: global dissociation constant K D. The text has this:
While the 2,2′-bipyridine ligand is known to be weakly emissive and for all practical purposes considered nonfluorescent, , the 5′-amido-[2,2′-bipyridine]-5-carboxamide unit in the βAlaBpy building block is highly emissive, displaying an intense emission band at c.a. 410 nm with a quantum yield of 0.37. Furthermore, the fluorescence of the βAlaBpy units is quenched upon coordination to a wide range of divalent transition metal ions. We exploited this property to monitor the coordinative properties of cyclopeptides 1 and 2 in the presence of labile Cu(II) ions in aqueous media. Thus, we measured the emission spectra of 2 μM solutions of the cyclopeptides 1 and 2 in 1 mM phosphate buffer and 10 mM NaCl, pH 6.5, upon excitation at 308 nm in the presence of increasing concentrations of Cu(II) ions. […] Therefore, the affinity of the first part of the titrations cannot be determined with this experiment as it is too strong. […]
5.2. Fluorescence titration experiments
Luminescence experiments were made with a Varian Cary Eclipse Fluorescence spectrophotometer coupled to a Cary Single Cell Peltier accessory (Agilent Technologies) temperature controller. […]
emission spectrum was recorded (λex= 308 nm; λem= 410 nm) after each addition. […]

Assay [4] concerns NCI/ADR-RES (doxorubicin resistant ovarian carcinoma). As to conditions: 48 h.
Excerpt: as §1, §2, §3, §4, §5, §6, §7, §8, §9, §10, §11, §12, §13, §14, §15, §16, §17, §18, §19
were performed with triplicate points.
b) Crystal violet cell staining
as §20, §21, §22, §23, §24, §25, §26, §27, §28, §29, §30, §31, §32, §33, §34, §35, §36
In assay [5] the test system is SF-268 (human glioma). Particulars: 72 h.
Excerpt: as §1, §2, §3, §4, §5, §6, §7, §8, §9, §10, §11, §12, §13, §14, §15, §16, §17, §18, §19
were performed with triplicate points.
b) Crystal violet cell staining
as §20, §21, §22, §23, §24, §25, §26, §27, §28, §29, §30, §31, §32, §33, §34, §35, §36
For assay [6], the system named is HCT-116 (colon carcinoma). As to conditions: 48 h.
Excerpt: as §1, §2, §3, §4, §5, §6, §7, §8, §9, §10, §11, §12, §13, §14, §15, §16, §17, §18, §19
were performed with triplicate points.
b) Crystal violet cell staining
as §20, §21, §22, §23, §24, §25, §26, §27, §28, §29, §30, §31, §32, §33, §34, §35, §36
Assay [7] has as its system NCI/ADR-RES cells. Put plainly: ICP-MS internalization study (intracellular Cu accumulation). Type of assay: cell-based. Particulars: 1 µM compound, 48 h, metallopeptides 1 eq. cyclopeptide + 1 eq. Cu(II). The procedure:
To evaluate the ability of the Cu(II) metallopeptide systems to internalize in cancer cells, ICP-MS studies were performed in NCI/ADR-RES cells after 48 h of incubation with cyclopeptides 1 and 2, as well as their corresponding 1/Cu(II) and 2/Cu(II) metallopeptide derivatives formed by mixing each cyclopeptide with 1 equiv Cu(II), and using CuCl2·2H2O both as a Cu(II) source and a control.
7.1. General methods and materials
ICP Measurements were conducted employing an Agilent 7900 ICP-MS system (Agilent Technologies, Tokyo, Japan). The sample introduction system was comprised of an autosampler, a double-pass spray chamber with Peltier system, a glass concentric nebulizer (MicroMist low-flow nebulizer, Glass Expansion, West Melbourne, Australia), and a quartz torch.
Quantification of copper concentrations was achieved using Agilent ICP-MS MassHunter 5.1, (Version D.01.01 Agilent Technologies, Tokyo, Japan). The parameters for the ICP-MS device were as follows: RF Power, 1550 W; Sample Depth, 8; Carrier Gas, 1.1 L/min; Nebulizer Pump […]
Roswell Park Memorial Institute 1640 medium (RPMI), fetal bovine serum (FBS), penicillin, and streptomycin were purchased from Invitrogen Thermo Fisher.
Ovarian tumour NCI/ADR-RES cells, obtained from the European Collection of Authenticated Cell Cultures (ECACC), were cultured at 37 °C in a 5% CO2 atmosphere in RPMI medium containing 10% FBS and supplemented with 50 U/mL penicillin and 50 U/mL streptomycin, in 75 cm2 cell culture flasks. All cell experiments were performed at 37 °C in a 5% CO 2 atmosphere with this modified RPMI, referred as “medium” or “culture medium”.
7.3. […]
The culture medium was then replaced with 3 mL of fresh medium containing 1 µM of the compound [Cu(II) (CuCl₂·2H₂O), cyclopeptide ( 1 or 2), or metallopeptide system [1/Cu(II) or 2/Cu(II); 1 eq. cyclopeptide + 1 eq. […] Lysates were digested at 95 °C overnight, diluted with 1% HNO₃ to a final volume of 5 mL, and analyzed by ICP-MS. The Cu(II) content in the culture medium (3 mL) was also measured using the same technique, yielding a value of 41.46 ng. […]

Broadly, the IC50 is the point on the concentration scale where inhibition reaches its midpoint. A lower IC50 goes with greater potency in that assay.

*1 amine or outer side, *2 acyl side, *3 side chain or, on linkers, in order; H or OH if unused. Where a SMILES comes first, the peptide text is derived from it. [ ]: non-standard residue; d: D form. X1 = O=C(c1ccc(-c2ccc(N[*:1])cn2)nc1)[*:2]; βAla = NCCC(=O)O

With `N=C(N)NCCC[C@@H]1NC(=O)c2ccc(nc2)-c2ccc(cn2)NC(=O)CCNC(=O)[C@H](CCCNC(=N)N)NC(=O)[C@H](CCCNC(=N)N)NC(=O)[C@H](CCCNC(=N)N)NC(=O)c2ccc(nc2)-c2ccc(cn2)NC(=O)CCNC(=O)[C@H](CCCNC(=N)N)NC(=O)[C@H](CCCNC(=N)N)NC(=O)[C@H](CCCNC(=N)N)NC(=O)c2ccc(nc2)-c2ccc(cn2)NC(=O)CCNC(=O)[C@H](CCCNC(=N)N)NC(=O)[C@H](CCCNC(=N)N)NC1=O` [compound 2, cyclo-(βAlaBpy-Arg3)3] (cyclo(RRR[βAla][X1]RRR[βAla][X1]RRR[βAla][X1])), the “E max (maximum % cell inhibition)” value in assay [1] is reported as 92 ± 1%; in assay [2] it was 92 ± 1%; in assay [4] it was 86 ± 1%; in assay [5], 92 ± 1%; in assay [6], 80 ± 1%. Besides, the IC50 in assay [1] was 18 ± 1 µM; in assay [2] it was 21 ± 1 µM; in assay [4], 28 ± 1 µM; in assay [5], 16 ± 1 µM; in assay [6] it was more than 100 µM. Besides, the Kd in assay [3] was 0.24 ± 0.1 µM. In assay [7], the “intracellular Cu(II) accumulation (ICP-MS)” value was “notably lower than that of the metallopeptide systems”.

Source of the values: PMC12128024, “Copper(II) Cyclopeptides with High ROS-Mediated Cytotoxicity” (Bioconjugate Chemistry, 2025).
